The Ki is a measure of affinity in units of concentration, obtained from inhibition or displacement.

50 compounds from US8586617B2, “Aminomethyl-4-imidazoles” (Hoffmann-La Roche Inc., priority 2006, dated 2013) can be followed below.

Sequence of TAAR1 (Q923Y8 whole entry): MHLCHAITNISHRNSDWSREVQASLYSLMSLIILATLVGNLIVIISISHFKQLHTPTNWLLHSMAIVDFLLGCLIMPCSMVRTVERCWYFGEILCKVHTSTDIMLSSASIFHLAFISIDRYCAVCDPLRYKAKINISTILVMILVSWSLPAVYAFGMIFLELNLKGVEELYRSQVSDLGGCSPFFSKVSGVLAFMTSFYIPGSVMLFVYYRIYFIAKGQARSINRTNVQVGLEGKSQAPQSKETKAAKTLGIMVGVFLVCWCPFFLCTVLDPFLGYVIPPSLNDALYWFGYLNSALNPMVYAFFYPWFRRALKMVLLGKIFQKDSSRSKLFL

This assay has as its target TAAR1 (Mus musculus (Mouse), UniProt Q923Y8). The assay is described as follows: TAAR1 radioligand binding assay ([3H]-rac-2-(1,2,3,4-tetrahydro-1-naphthyl)-2-imidazoline, membranes of stably transfected HEK293 cells). The note with it: read-out: Ki (μM) mouse; mouse TAAR1; radioligand [3H]-rac-2-(1,2,3,4-tetrahydro-1-naphthyl)-2-imidazoline at 60 nM; 4° C., 30 minutes.
Experimental: The ability of the compounds of the present invention to bind to TAAR1 was investigated in accordance with the test given hereinafter.
For the generation of stably transfected cell lines HEK293 cells were transfected with the pIRESneo2 expression plasmids containing the TAAR coding sequences (described above) with Lipofectamine 2000 (Invitrogen) according to the instructions of the manufacturer, and 24 hours post transfection the culture medium was supplemented with 1 mg/ml G418 (Sigma, Buchs, Switzerland). After a culture period of about 10 days, clones were isolated, expanded and tested for responsiveness to trace amines (all compounds purchased from Sigma) with the cAMP Biotrak Enzyme immunoassay (EIA) System (Amersham) following the non-acetylation EIA procedure provided by the manufacturer.
Cells at confluence were rinsed with ice-cold phosphate buffered saline without Ca^2+ and Mg^2+ containing 10 mM EDTA and pelleted by centrifugation at 1000 rpm for 5 min at 4° C. The pellet was then washed twice with ice-cold phosphate buffered saline and cell pellet was frozen immediately by immersion in liquid nitrogen and stored until use at −80° C. The cell pellet was then suspended in 20 ml HEPES-NaOH (20 mM), pH 7.4 containing 10 mM EDTA, and homogenized with a Polytron (PT 3000, Kinematica) at 10,000 rpm for 10 seconds. The homogenate was centrifuged at 48,000×g for 30 minutes at 4° C. and the pellet resuspended in 20 ml HEPES-NaOH (20 mM), pH 7.4 containing 0.1 mM EDTA (buffer A), and homogenized with a Polytron at 10,000 rpm for 10 seconds. The homogenate was then centrifuged at 48,000×g for 30 minutes at 4° C. and the pellet resuspended in 20 ml buffer A, and homogenized with a Polytron at 10,000 rpm for 10 seconds. […] The homogenate was then centrifuged at 48,000×g for 10 minutes at 4° C., resuspended in HEPES-NaOH (20 mM), pH 7.0 including MgCl2 (10 mM) and CaCl2 (2 ml) (buffer B) at 200 μg protein per ml and homogenized with a Polytron at 10,000 rpm for 10 seconds.
Binding assay was performed at 4° C. in a final volume of 1 ml, and with an incubation time of 30 minutes. […] Non-specific binding was defined as the amount of [^3H]-rac-2-(1,2,3,4-tetrahydro-1-naphthyl)-2-imidazoline bound in the presence of the appropriate unlabelled ligand (10 μM). Competing ligands were tested in a wide range of concentrations (10 pM-30 μM). […] Each experiment was performed in duplicate. All incubations were terminated by rapid filtration through UniFilter-96 plates (Packard Instrument Company) and glass filter GF/C, pre-soaked for at least 2 h in polyethylenimine 0.3%, and using a Filtermate 96 Cell Harvester (Packard Instrument Company). The tubes and filters were then washed 3 times with 1 ml aliquots of cold buffer B. Filters were not dried and soaked in Ultima gold (45 D/well, Packard Instrument Company) and bound radioactivity was counted by a TopCount Microplate Scintillation Counter (Packard Instrument Company).
In the case of `Clc1cccc(N(Cc2cnc[nH]2)CC2CC2)c1` [Example 51, (3-Chloro-phenyl)-cyclopropylmethyl-(3H-imidazol-4-ylmethyl)-amine], the Ki was found to be 0.0009 µM. Under `Brc1cccc(NCc2cnc[nH]2)c1` [Example 225, (3-Bromo-phenyl)-(3H-imidazol-4-ylmethyl)-amine] stands 0.001 µM. Regarding `CC(C)N(Cc1cnc[nH]1)c1cc(Cl)cc(Cl)c1` [Example 24, (3,5-Dichloro-phenyl)-(3H-imidazol-4-ylmethyl)-isopropyl-amine], the Ki amounted to 0.001 µM. Under `CCN(Cc1cnc[nH]1)c1ccc(Cl)c(Cl)c1` [Example 247, (3,4-Dichloro-phenyl)-ethyl-(1H-imidazol-4-ylmethyl)-amine] stands 0.001 µM; under `CCN(Cc1cnc[nH]1)c1cccc(OCc2ccccc2)c1` [Example 192, (3-Benzyloxy-phenyl)-ethyl-(3H-imidazol-4-ylmethyl)-amine], 0.001 µM. For `CC(C)N(Cc1cnc[nH]1)c1cccc(Oc2ccc(Cl)cc2)c1` [Example 149, [3-(4-Chloro-phenoxy)-phenyl]-(3H-imidazol-4-ylmethyl)-isopropyl-amine] the value was 0.0082 µM; for `Fc1ccc(NCc2cnc[nH]2)cc1Oc1ccccc1` [Example 202, (4-Fluoro-3-phenoxy-phenyl)-(3H-imidazol-4-ylmethyl)-amine], 0.0084 µM. For `CC(C)N(Cc1cnc[nH]1)c1ccc2c(c1)CCC2` [Example 73, (3H-Imidazol-4-ylmethyl)-indan-5-yl-isopropyl-amine] the value was 0.0055 µM; for `CCN(Cc1cnc[nH]1)c1cc(F)cc(F)c1` [Example 306, (3,5-Difluoro-phenyl)-ethyl-(1H-imidazol-4-ylmethyl)-amine], 0.002 µM. Regarding `Cc1cc(N(Cc2cnc[nH]2)C(C)C)ccc1F` [Example 109, (4-Fluoro-3-methyl-phenyl)-(3H-imidazol-4-ylmethyl)-isopropyl-amine], the Ki worked out at 0.0041 µM. For `c1ccc(Nc2ccc(NCc3cnc[nH]3)cc2)cc1` [Example 155, N-(1H-Imidazol-4-ylmethyl)-N′-phenyl-benzene-1,4-diamine] the value was 0.0094 µM; for `CC(C)N(Cc1cnc[nH]1)c1cccc(-c2ccccc2)c1` [Example 142, Biphenyl-3-yl-(3H-imidazol-4-ylmethyl)-isopropyl-amine], 0.0079 µM.

In the case of `CN(Cc1cnc[nH]1)c1cc(Cl)cc(Cl)c1` [Example 291, (3,5-Dichloro-phenyl)-(1H-imidazol-4-ylmethyl)-methyl-amine], the Ki was 0.001 µM.

`CCN(Cc1cnc[nH]1)c1ccc(F)c(OC)c1` [Example 194, Ethyl-(4-fluoro-3-methoxy-phenyl)-(3H-imidazol-4-ylmethyl)-amine]: the Ki amounted to 0.0048 µM. For `CC(C)N(Cc1cnc[nH]1)c1ccc(Br)c(Cl)c1` [Example 331, (4-Bromo-3-chloro-phenyl)-(1#H!-imidazol-4-ylmethyl)-isopropyl-amine] the value was 0.001 µM; for `CC(C)N(Cc1cnc[nH]1)c1ccc(F)c(Cl)c1` [Example 53, (3-Chloro-4-fluoro-phenyl)-(3H-imidazol-4-ylmethyl)-isopropyl-amine], 0.0015 µM. For `CC(C)N(Cc1cnc[nH]1)c1ccc(OC(F)(F)F)c(Cl)c1` [Example 33, (3-Chloro-4-trifluoromethoxy-phenyl)-(3H-imidazol-4-ylmethyl)-isopropyl-amine] the value was 0.0028 µM; for `CCN(Cc1cnc[nH]1)c1cccc(C)c1` [Example 6, Ethyl-(3H-imidazol-4-ylmethyl)-m-tolyl-amine], 0.0018 µM. Under `CC(C)N(Cc1cnc[nH]1)c1ccc(Br)cc1` [Example 296, (4-Bromo-phenyl)-(1H-imidazol-4-ylmethyl)-isopropyl-amine] stands 0.004 µM; under `CN(Cc1cnc[nH]1)c1ccc(F)c(F)c1` [Example 287, (3,4-Difluoro-phenyl)-(1H-imidazol-4-ylmethyl)-methyl-amine], 0.007 µM; under `CCN(Cc1cnc[nH]1)c1ccc(F)c(F)c1` [Example 58, (3,4-Difluoro-phenyl)-ethyl-(3H-imidazol-4-ylmethyl)-amine], 0.0014 µM. Turning to `CCN(Cc1cnc[nH]1)c1ccc(Br)cc1` [Example 302, (4-Bromo-phenyl)-ethyl-(1H-imidazol-4-ylmethyl)-amine], the Ki came to 0.003 µM. Take `CN(Cc1cnc[nH]1)c1cccc(Br)c1` [Example 284, (3-Bromo-phenyl)-(3H-imidazol-4-ylmethyl)-methyl-amine]: the inhibition constant (Ki) stood at 0.002 µM.

In the case of `COc1c(F)ccc(N(Cc2cnc[nH]2)C(C)C)c1F` [Example 102, (2,4-Difluoro-3-methoxy-phenyl)-(3H-imidazol-4-ylmethyl)-isopropyl-amine], the Ki was determined as 0.006 µM. For `CCN(Cc1cnc[nH]1)c1cccc(Cl)c1F` [Example 81, (3-Chloro-2-fluoro-phenyl)-ethyl-(3H-imidazol-4-ylmethyl)-amine] the value was 0.0036 µM. For `CN(Cc1cnc[nH]1)c1cccc(Oc2ccccc2)c1` [Example 175, (3H-Imidazol-4-ylmethyl)-methyl-(3-phenoxy-phenyl)-amine] the value was 0.0036 µM; for `CN(Cc1cnc[nH]1)c1cccc(OCc2ccccc2)c1` [Example 190, (3-Benzyloxy-phenyl)-(3H-imidazol-4-ylmethyl)-methyl-amine], 0.0014 µM; for `CCN(Cc1cnc[nH]1)c1ccc(Cl)c(F)c1` [Example 307, (4-Chloro-3-fluoro-phenyl)-ethyl-(1H-imidazol-4-ylmethyl)-amine], 0.002 µM. With `CN(Cc1cnc[nH]1)c1cccc(OC(F)F)c1` [Example 189, (3-Difluoromethoxy-phenyl)-(3H-imidazol-4-ylmethyl)-methyl-amine], the inhibition constant Ki stood at 0.0068 µM. Regarding `CC(C)N(Cc1cnc[nH]1)c1cccc(Oc2cccc(Cl)c2)c1` [Example 206, [3-(3-Chloro-phenoxy)-phenyl]-(3H-imidazol-4-ylmethyl)-isopropyl-amine], the Ki turned out to be 0.005 µM. For `CN(Cc1cnc[nH]1)c1ccc(Cl)c(Cl)c1` [Example 288, (3,4-Dichloro-phenyl)-(1H-imidazol-4-ylmethyl)-methyl-amine] the value was 0.002 µM; for `CC(C)N(Cc1cnc[nH]1)c1cccc(Cc2ccccc2)c1` [Example 141, (3-Benzyl-phenyl)-(3H-imidazol-4-ylmethyl)-isopropyl-amine], 0.0015 µM; for `CCN(Cc1cnc[nH]1)c1ccc(Cl)cc1` [Example 57, (4-Chloro-phenyl)-ethyl-(3H-imidazol-4-ylmethyl)-amine], 0.0014 µM. In the case of `CC(C)N(Cc1cnc[nH]1)c1ccc(OC(F)(F)F)cc1` [Example 67, (3H-Imidazol-4-ylmethyl)-isopropyl-(4-trifluoromethoxy-phenyl)-amine], the Ki was 0.0067 µM. In the case of `CC(C)Oc1cccc(N(Cc2cnc[nH]2)C(C)C)c1` [Example 110, (3H-Imidazol-4-ylmethyl)-(3-isopropoxy-phenyl)-isopropyl-amine], the Ki is 0.0067 µM. Under `CN(Cc1cnc[nH]1)c1cc(F)cc(F)c1` [Example 292, (3,5-Difluoro-phenyl)-(1H-imidazol-4-ylmethyl)-methyl-amine] stands 0.007 µM. For `CCN(Cc1cnc[nH]1)c1cccc(Oc2ccccc2)c1` [Example 188, Ethyl-(3H-imidazol-4-ylmethyl)-(3-phenoxy-phenyl)-amine] the value was 0.0024 µM; for `COc1cccc(N(C)Cc2cnc[nH]2)c1` [Example 186, (3H-Imidazol-4-ylmethyl)-(3-methoxy-phenyl)-methyl-amine], 0.0089 µM; for `CC(C)N(Cc1cnc[nH]1)c1cc(F)cc(Cl)c1` [Example 76, (3-Chloro-5-fluoro-phenyl)-(3H-imidazol-4-ylmethyl)-isopropyl-amine], 0.0011 µM. `CCN(Cc1cnc[nH]1)c1cc(Cl)cc(Cl)c1` [Example 303, (3,5-Dichloro-phenyl)-ethyl-(1H-imidazol-4-ylmethyl)-amine]: the Ki amounted to 0.001 µM. In the case of `CC(C1CC1)N(Cc1cnc[nH]1)c1cccc(Cl)c1` (centres unmarked) [Example 52, (3-Chloro-phenyl)-(1-cyclopropylethyl)-(3H-imidazol-4-ylmethyl)-amine], the Ki amounted to 0.004 µM. Turning to `CC(C)N(Cc1cnc[nH]1)c1ccc2ccccc2c1` [Example 70, (3H-Imidazol-4-ylmethyl)-isopropyl-naphthalen-2-yl-amine], the Ki came out at 0.0082 µM.

For the compound `CCN(Cc1cnc[nH]1)c1ccc(C)c(C)c1` [Example 130, (3,4-Dimethyl-phenyl)-ethyl-(1H-imidazol-4-ylmethyl)-amine], the Ki was 0.0039 µM. In the case of `CCN(Cc1cnc[nH]1)c1cccc(Br)c1` [Example 275, (3-Bromo-phenyl)-ethyl-(3H-imidazol-4-ylmethyl)-amine], the Ki amounted to 0.001 µM. Under `Clc1cc(NCc2cnc[nH]2)ccc1Br` [Example 325, (4-Bromo-3-chloro-phenyl)-(1H-imidazol-4-ylmethyl)-amine] stands 0.002 µM; under `CCN(Cc1cnc[nH]1)c1cccc(OC(F)F)c1` [Example 195, (3-Difluoromethoxy-phenyl)-ethyl-(3H-imidazol-4-ylmethyl)-amine], 0.0042 µM; under `CN(Cc1cnc[nH]1)c1ccc(Cl)cc1` [Example 10, (4-Chloro-phenyl)-(3H-imidazol-4-ylmethyl)-methyl-amine], 0.0045 µM. For `CCN(Cc1cnc[nH]1)c1ccc(F)c(Br)c1` [Example 309, (3-Bromo-4-fluoro-phenyl)-ethyl-(1H-imidazol-4-ylmethyl)-amine], the Ki was 0.003 µM. Turning to `CCN(Cc1cnc[nH]1)c1cccc(OC)c1` [Example 193, Ethyl-(3H-imidazol-4-ylmethyl)-(3-methoxy-phenyl)-amine], the Ki was 0.008 µM. For `CC(C)N(Cc1cnc[nH]1)c1ccc(F)c(Oc2ccccc2)c1` [Example 208, (4-Fluoro-3-phenoxy-phenyl)-(3H-imidazol-4-ylmethyl)-isopropyl-amine] the value was 0.003 µM.
